Source: ChEMBL document CHEMBL5346897, “smProdrugs: A repository of small molecule prodrugs” (Eur J Med Chem, 2023)
≈ marks a conversion by molar mass, not a printed value.

Key:
[1] = Solubility of the compound; type: physicochemical
[2] = Lipophilicity, logP of the compound; type: physicochemical; details: octanol/water

solubility [1]: 123 µg/mL (≈ 264 µM)
logP [2]: 0.88
Structure (SMILES): CCOC(=O)OC(C)OC(=O)[C@@H]1N2C(=O)[C@@H](NC(=O)[C@H](N)c3ccccc3)[C@H]2SC1(C)C (some centres not stated) [BACAMPICILLIN]
